Laboratory results as given in ChEMBL document CHEMBL1141724, “Design and synthesis of 2-amino-pyrazolopyridines as Polo-like kinase 1 inhibitors” (Bioorg Med Chem Lett, 2008).
Activity calls are given as the source filed them. The rule behind the calls is not given here.

Assays:
[1] = target: Serine/threonine-protein kinase PLK1 (Homo sapiens, UniProt P53350)
HCT-116 [2] = test: cells; conditions: Homo sapiens
Description: Effect on cell cycle progression in human HCT116 cells assessed as mitotic arrest measured by doubling DNA content by High content screening

HCT-116 [3] = test: cells; conditions: Homo sapiens; remark: listed apart in the source
Description: Effect on cell cycle progression in human HCT116 cells assessed as mitotic arrest measured by doubling DNA content by fluorescence microscopy

HCT-116 [4] = test: cells; conditions: Homo sapiens; remark: listed apart in the source
Description: Effect on cell cycle progression in human HCT116 cells assessed as increase in phospho-histone H3 by fluorescence microscopy

[5] = Selectivity for Plk1 over Plk2
[6] = Selectivity for Plk1 over Plk3
[7] = Selectivity for Plk1 over Aurora A
HeLa = test: Decrease in B23 nucleophosmin phosphorylation in human HeLa cells at 5 uM after 16 hrs by Western blot analysis; assay type: functional, cell-based

Chain of Serine/threonine-protein kinase PLK1 (P53350 whole entry): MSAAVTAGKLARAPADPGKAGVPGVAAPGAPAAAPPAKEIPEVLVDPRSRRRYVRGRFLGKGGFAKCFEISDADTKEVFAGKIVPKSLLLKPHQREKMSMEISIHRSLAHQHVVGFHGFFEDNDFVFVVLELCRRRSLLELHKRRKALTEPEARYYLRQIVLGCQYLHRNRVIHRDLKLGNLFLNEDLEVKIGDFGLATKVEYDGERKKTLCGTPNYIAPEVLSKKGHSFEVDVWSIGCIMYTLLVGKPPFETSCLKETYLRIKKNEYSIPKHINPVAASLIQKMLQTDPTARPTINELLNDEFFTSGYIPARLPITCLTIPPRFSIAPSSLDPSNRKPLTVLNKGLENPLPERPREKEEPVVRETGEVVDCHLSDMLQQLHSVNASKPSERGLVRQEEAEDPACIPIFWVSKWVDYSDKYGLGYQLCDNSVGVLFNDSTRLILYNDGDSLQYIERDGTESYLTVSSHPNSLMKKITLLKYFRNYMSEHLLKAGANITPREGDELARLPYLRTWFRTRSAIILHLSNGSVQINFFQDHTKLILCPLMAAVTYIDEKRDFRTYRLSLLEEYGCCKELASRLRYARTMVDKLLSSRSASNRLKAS

| SMILES | IC50 [1] [nM] | EC50 (HCT-116 [2]) [nM] | other results |
| --- | --- | --- | --- |
| Cc1nn(-c2cc(Cl)cc(CCC(=O)NCCO)c2)c2cc(N[C@@H](C)c3ccccc3)ncc12 | 48 | 9200 |  |
| Cc1nn(-c2cc(Cl)cc(CCC(N)=O)c2)c2cc(N[C@@H](C)c3ccccc3)ncc12 | 32 | 9350 |  |
| Cc1ccc(-n2nc(C)c3cnc(N[C@@H](C)c4ccccc4)cc32)cc1 | 4530 |  |  |
| Cc1nn(-c2cc(Cl)cc(CCC(=O)O)c2)c2cc(N[C@@H](C)c3ccccc3)ncc12 | 21 | > 20000 |  |
| CCOC(=O)C1=C(C)NC(=S)NC1c1cccc(O)c1 (centres undefined) [MONASTROL] |  |  | EC50 (HCT-116 [3]): 1200 nM; EC50 (HCT-116 [4]): 1500 nM |
| Cc1nn(-c2cc(Cl)cc(CCCN)c2)c2cc(N[C@@H](C)c3ccccc3)ncc12 | 59 | 5800 |  |
| C[C@H](Nc1cc2c(cn1)cnn2-c1ccccc1C(N)=O)c1ccccc1 | 50 | 2430 | Selectivity ratio [5]: 50; EC50 (HCT-116 [3]): 1900 nM; Selectivity ratio [6]: 50; EC50 (HCT-116 [4]): 1700 nM; Selectivity ratio [7]: 150; Activity (HeLa): Active |
| Cc1nn(-c2cc(Cl)cc(Cl)c2)c2cc(N[C@@H](C)c3ccccc3)ncc12 | 641 |  |  |
| Cc1nn(-c2cccc(S(C)(=O)=O)c2)c2cc(N[C@@H](C)c3ccccc3)ncc12 | 225 |  |  |
| Cc1cc(C)cc(-n2nc(C)c3cnc(N[C@@H](C)c4ccccc4)cc32)c1 | 149 |  |  |
| Cc1nn(-c2cccc(N(C)C)c2)c2cc(N[C@@H](C)c3ccccc3)ncc12 | 977 |  |  |
| Cc1nn(-c2ccccc2F)c2cc(N[C@@H](C)c3ccccc3)ncc12 | 4520 |  |  |
| Cc1nn(-c2cccc(C#N)c2)c2cc(N[C@@H](C)c3ccccc3)ncc12 | 412 |  |  |
| Cc1nn(-c2cccc(Cl)c2)c2cc(N[C@@H](C)c3ccccc3)ncc12 |  | > 20000 |  |
| Cc1cccc(-n2nc(C)c3cnc(N[C@@H](C)c4ccccc4)cc32)c1 | 474 |  |  |
| COc1ccccc1-n1nc(C)c2cnc(N[C@@H](C)c3ccccc3)cc21 | 14500 |  |  |
| Cc1nn(-c2ccccc2C(N)=O)c2cc(N[C@@H](C)c3ccccc3)ncc12 | 42 | 3640 |  |
| CC(=O)Nc1ccccc1-c1cc(Cl)cc(-n2nc(C)c3cnc(N[C@@H](C)c4ccccc4)cc32)c1 | 207 | > 20000 |  |
| COc1cccc(-n2nc(C)c3cnc(N[C@@H](C)c4ccccc4)cc32)c1 | 5930 |  |  |
| COc1ccc(-n2nc(C)c3cnc(N[C@@H](C)c4ccccc4)cc32)cc1 | 703 |  |  |
| Cc1ccccc1-n1nc(C)c2cnc(N[C@@H](C)c3ccccc3)cc21 | 7690 |  |  |
| Cc1nn(-c2cccc(F)c2)c2cc(N[C@@H](C)c3ccccc3)ncc12 | 464 |  |  |
| Cc1nn(-c2cccc(C(C)C)c2)c2cc(N[C@@H](C)c3ccccc3)ncc12 | 1480 |  |  |
| Cc1nn(-c2cc(Cl)cc(Br)c2)c2cc(N[C@@H](C)c3ccccc3)ncc12 | 274 |  |  |
| Cc1nn(-c2ccc(F)cc2)c2cc(N[C@@H](C)c3ccccc3)ncc12 | 3240 |  |  |
